Assay results: patent publication US12565501B2, “Muscarinic acetylcholine M1 receptor antagonists” (Contineum Therapeutics, Inc., priority 2019, dated 2026)

How the values were obtained:
Assay type in all cases: cell-based
[1] = biological target: T1, human M1 receptor (Homo sapiens, UniProt P11229); experiment: In vitro functional assay of muscarinic acetylcholine receptor activity (aequorin calcium flux, reversal of EC80 acetylcholine response); settings: CHO-K1 cells stably expressing human M1 receptor with aequorin; acetylcholine at EC80; calcium flux (luminescence); read-out: M1 IC50
T1 sequence (P11229 1-460): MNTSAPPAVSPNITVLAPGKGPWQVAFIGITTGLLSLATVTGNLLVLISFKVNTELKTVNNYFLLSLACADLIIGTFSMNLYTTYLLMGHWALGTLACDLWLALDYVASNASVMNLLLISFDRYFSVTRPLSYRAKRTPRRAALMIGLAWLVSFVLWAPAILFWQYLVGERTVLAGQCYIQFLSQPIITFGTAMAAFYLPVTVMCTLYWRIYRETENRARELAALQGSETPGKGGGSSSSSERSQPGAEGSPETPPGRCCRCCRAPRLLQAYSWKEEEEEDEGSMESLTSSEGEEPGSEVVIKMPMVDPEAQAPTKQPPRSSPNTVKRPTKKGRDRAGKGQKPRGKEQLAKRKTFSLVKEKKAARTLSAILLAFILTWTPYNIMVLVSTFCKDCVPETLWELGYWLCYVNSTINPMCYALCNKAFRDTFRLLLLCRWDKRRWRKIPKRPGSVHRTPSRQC
Outline: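 CHO-K1 cells expressing human M1 and aequorin, loaded with 5 μM coelenterazine for 4 h, preincubated with compound 30 min at room temperature, then challenged with EC80 acetylcholine.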

[2] = biological target: T2, human M2 receptor (Homo sapiens, UniProt P08172); experiment: In vitro functional assay, reversal of EC80 acetylcholine response in CHO-K1 aequorin cells
T2 sequence (P08172 1-466): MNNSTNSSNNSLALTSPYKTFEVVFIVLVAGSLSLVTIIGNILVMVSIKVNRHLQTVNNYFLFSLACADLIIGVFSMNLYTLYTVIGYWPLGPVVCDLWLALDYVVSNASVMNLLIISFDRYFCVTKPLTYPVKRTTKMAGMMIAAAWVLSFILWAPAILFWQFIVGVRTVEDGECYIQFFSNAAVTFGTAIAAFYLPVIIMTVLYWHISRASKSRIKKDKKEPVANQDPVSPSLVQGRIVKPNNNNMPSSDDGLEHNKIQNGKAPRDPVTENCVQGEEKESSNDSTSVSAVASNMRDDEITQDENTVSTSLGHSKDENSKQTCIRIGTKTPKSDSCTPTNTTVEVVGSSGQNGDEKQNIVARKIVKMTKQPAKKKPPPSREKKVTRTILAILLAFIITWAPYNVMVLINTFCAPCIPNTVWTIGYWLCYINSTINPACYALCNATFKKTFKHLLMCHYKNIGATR
Experimental: (§1) CHO-K1 cells stably expressing human M1 receptor with aequorin (Perkin Elmer) were grown in F12 media (Gibco) containing 10% FBS (ATCC), 0.4 mg/mL geneticin (Sigma-Aldrich) and 0.25 mg/mL Zeocin (Invitrogen). Cells were grown as per the manufacturer's protocol. For compound testing, cells were grown to confluency and detached gently with Accutase (Sigma-Aldrich) followed by centrifugation for 5 min at 150× g. Cells were then re-suspended in assay buffer (i.e. DMEM/F-12 HEPES without phenol red (Invitrogen) with 0.1% BSA (Sigma-Aldrich)) at a density of 5×10^6 cells/ml. Under sterile conditions, 5 μM coelenterazine (Invitrogen) was added to the cells, mixed, then incubated at room temperature protected from light, with gentle agitation, for 4 h.
(§2) Primary compound plates were prepared in 100% DMSO in opaque 96-well plates (VWR) and serially diluted in half log increments. Secondary compound plates were prepared at 3× concentration in assay buffer. Compounds were added to white, clear bottom tissue culture treated 96-well plates (Fisher Scientific). Coelenterazine-loaded cells were then added at 5×10^5 cells/well.
(§3) Compounds and cells were incubated at room temperature for 30 min in the dark. Acetylcholine at the EC80 concentration was added and calcium flux measured using a FlexStation 3 (Molecular Devices). Sigmoidal dose-response curves were generated by measuring luminescence over 40 sec and calculating the area under the curve. Dose response curves and IC50 values were generated using Prism (GraphPad). Compounds were tested at a final concentration range of 100 μM to […] in 0.1% DMSO.
(§4) CHO-K1 cells stably expressing human M2, M3 and M4 receptors, respectively, with aequonin (Perkin Elmer) were used to assess a test compound's ability to dose-dependently reverse the EC80 acetylcholine response. The IC50 of the compounds was calculated from the dose response curve.

[3] = biological target: human M3 receptor (Homo sapiens, UniProt P20309); experiment: as above
Chain of human M3 receptor (P20309 whole entry): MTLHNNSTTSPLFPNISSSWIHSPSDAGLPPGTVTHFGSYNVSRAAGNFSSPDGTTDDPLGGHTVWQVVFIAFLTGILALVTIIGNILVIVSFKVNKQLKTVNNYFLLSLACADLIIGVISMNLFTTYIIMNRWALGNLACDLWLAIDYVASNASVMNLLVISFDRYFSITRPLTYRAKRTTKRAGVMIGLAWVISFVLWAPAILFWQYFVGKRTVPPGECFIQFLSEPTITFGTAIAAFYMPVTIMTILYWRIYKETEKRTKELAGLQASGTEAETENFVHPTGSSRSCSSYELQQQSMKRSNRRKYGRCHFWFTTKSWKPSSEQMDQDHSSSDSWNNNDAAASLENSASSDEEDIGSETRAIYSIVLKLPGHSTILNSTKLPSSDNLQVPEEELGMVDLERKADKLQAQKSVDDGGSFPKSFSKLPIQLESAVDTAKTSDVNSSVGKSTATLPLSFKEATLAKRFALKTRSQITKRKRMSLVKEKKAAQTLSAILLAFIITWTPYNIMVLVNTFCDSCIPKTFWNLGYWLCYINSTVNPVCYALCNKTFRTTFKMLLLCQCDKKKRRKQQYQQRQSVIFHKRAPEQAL
Experimental: as §1, §2, §3, §4

`N#Cc1ccc(N2C3CCC2CN(C(=O)COC2(c4cc(F)cc(F)c4)CC2)C3)nc1` [Example 210, 6-(3-(2-(1-(3,5-difluorophenyl)cyclopropoxy)acetyl)-3,8-diazabicyclo[3.2.1]octan-8-yl)nicotinonitrile] was tested, and the IC50 [1] was 10 to 100 nM, the IC50 [2] was > 1000 nM and the IC50 [3] was 1000 to 10000 nM.
With `N#Cc1ccc(N2C3CCC2CN(C(=O)COC2(c4ncccc4F)CCC2)C3)nc1` [Example 250, 6-(3-(2-(1-(3-fluoropyridin-2-yl)cyclobutoxy)acetyl)-3,8-diazabicyclo[3.2.1]octan-8-yl)nicotinonitrile] the IC50 [1] was 100 to 1000 nM, the IC50 [2] was > 1000 nM and the IC50 [3] was 1000 to 10000 nM.
Work on `N#Cc1ccc(N2C3CCC2CN(C(=O)CCNC2(c4cc(Cl)cc(C#N)c4)CC2)C3)nc1` [Example 289, 6-(3-(3-((1-(3-chloro-5-cyanophenyl)cyclopropyl)amino)propanoyl)-3,8-diazabicyclo[3.2.1]octan-8-yl)nicotinonitrile] yielded an IC50 [1] of 100 to 1000 nM.
In the case of `N#Cc1ccc(N2C3CCC2CN(C(=O)COC2(c4cccc(C#N)c4F)CC2)C3)nc1` [Example 290, 6-(3-(2-(1-(3-cyano-2-fluorophenyl)cyclopropoxy)acetyl)-3,8-diazabicyclo[3.2.1]octan-8-yl)nicotinonitrile], the IC50 [1] is reported as 1000 to 10000 nM.
`N#Cc1ccc(N2C3CCC2CN(C(=O)COC2(c4ccc(F)c(C#N)c4)CC2)C3)nc1` [Example 291, 6-(3-(2-(1-(3-cyano-4-fluorophenyl)cyclopropoxy)acetyl)-3,8-diazabicyclo[3.2.1]octan-8-yl)nicotinonitrile] gave an IC50 [1] of 100 to 1000 nM.
Compound `N#Cc1ccc(N2C3CCC2CN(C(=O)COC2(c4cc(F)cc(C#N)c4)CC2)C3)nc1` [Example 292, 6-(3-(2-(1-(3-cyano-5-fluorophenyl)cyclopropoxy)acetyl)-3,8-diazabicyclo[3.2.1]octan-8-yl)nicotinonitrile] has an IC50 [1] of 100 to 1000 nM.
For `COc1ccc(C#N)c(C2(OCC(=O)N3CC4CCC(C3)N4c3ccc(C#N)cn3)CC2)c1` [Example 293, 6-(3-(2-(1-(2-cyano-5-methoxyphenyl)cyclopropoxy)acetyl)-3,8-diazabicyclo[3.2.1]octan-8-yl)nicotinonitrile], the IC50 [1] was < 10 nM.
With `N#Cc1ccc(N2C3CCC2CN(C(=O)COC2(c4ccccc4C#N)CC2)C3)nc1` [Example 294, 6-(3-(2-(1-(2-cyanophenyl)cyclopropoxy)acetyl)-3,8-diazabicyclo[3.2.1]octan-8-yl)nicotinonitrile] the IC50 [1] was 100 to 1000 nM.
`N#Cc1ccc(N2C3CCC2CN(C(=O)COC2(c4cccc(C#N)c4)CC2)C3)nc1` [Example 295, 6-(3-(2-(1-(3-cyanophenyl)cyclopropoxy)acetyl)-3,8-diazabicyclo[3.2.1]octan-8-yl)nicotinonitrile] showed an IC50 [1] of 100 to 1000 nM.
With `N#Cc1ccc(C2(OCC(=O)N3CC4CCC(C3)N4c3ccc(C#N)cn3)CC2)cc1` [Example 296, 6-(3-(2-(1-(4-cyanophenyl)cyclopropoxy)acetyl)-3,8-diazabicyclo[3.2.1]octan-8-yl)nicotinonitrile] the IC50 [1] was 1000 to 10000 nM.
For `N#Cc1ccc(N2C3CCC2CN(C(=O)COC2(c4ccc(F)cc4C#N)CC2)C3)nc1` [Example 297, 6-(3-(2-(1-(2-cyano-4-fluorophenyl)cyclopropoxy)acetyl)-3,8-diazabicyclo[3.2.1]octan-8-yl)nicotinonitrile], the IC50 [1] was 10 to 100 nM.
For `N#Cc1ccc(N2C3CCC2CN(C(=O)COC2(c4cc(F)ccc4C#N)CC2)C3)nc1` [Example 298, 6-(3-(2-(1-(2-cyano-5-fluorophenyl)cyclopropoxy)acetyl)-3,8-diazabicyclo[3.2.1]octan-8-yl)nicotinonitrile], the IC50 [1] was 100 to 1000 nM.
`Cn1c(C2(OCC(=O)N3CC4CCC(C3)N4c3ccc(C#N)cn3)CCC2)cccc1=O` [Example 299, 6-(3-(2-(1-(1-methyl-6-oxo-1,6-dihydropyridin-2-yl)cyclobutoxy)acetyl)-3,8-diazabicyclo[3.2.1]octan-8-yl)nicotinonitrile] gave an IC50 [1] of 10 to 100 nM.
`Cn1ccc(C2(OCC(=O)N3CC4CCC(C3)N4c3ccc(C#N)cn3)CCC2)cc1=O` [Example 300, 6-(3-(2-(1-(1-methyl-2-oxo-1,2-dihydropyridm-4-yl)cyclobutoxy)acetyl)-3,8-diazabicyclo[3.2.1]octan-8-yl)nicotinonitrile] was tested, and the IC50 [1] was 10 to 100 nM.
`Cn1ccc(=O)c(C2(OCC(=O)N3CC4CCC(C3)N4c3ccc(C#N)cn3)CC2)c1` [Example 302, 6-(3-(2-(1-(1-methyl-4-oxo-1,4-dihydropyridin-3-yl)cyclopropoxy)acetyl)-3,8-diazabicyclo[3.2.1]octan-8-yl)nicotinonitrile] was tested, and the IC50 [1] was > 1000 nM.
For `N#Cc1ccc(N2C3CCC2CN(C(=O)CCOC2(c4ccc(F)c(F)c4)CCC2)C3)nc1` [Example 303, 6-(3-(3-(1-(3,4-difluorophenyl)cyclobutoxy)propanoyl)-3,8-diazabicyclo[3.2.1]octan-8-yl)nicotinonitrile], the IC50 [1] was < 10 nM.
In the case of `C[C@@H](OCCC(=O)N1C[C@H]2CC[C@@H](C1)N2c1ccc(C#N)cn1)c1ccccc1` [Example 304, 6-(3-(3-((R)-1-phenylethoxy)propanoyl)-3,8-diazabicyclo[3.2.1]octan-8-yl)nicotinonitrile], the IC50 [1] is reported as 10 to 100 nM, the IC50 [2] is reported as 1000 to 10000 nM and the IC50 [3] is reported as > 1000 nM.
With `C[C@H](OCCC(=O)N1CC2CCC(C1)N2c1ccc(C#N)cn1)c1ccccc1` [Example 305, 6-(3-(3-((S)-1-phenylethoxy)propanoyl)-3,8-diazabicyclo[3.2.1]octan-8-yl)nicotinonitrile] the IC50 [1] was 100 to 1000 nM.
Compound `C[C@@H](OCCC(=O)N1CC2CCC(C1)N2c1ccc(C#N)cn1)c1ccc(F)c(F)c1` [Example 306, 6-(3-(3-((R)-1-(3,4-difluorophenyl)ethoxy)propanoyl)-3,8-diazabicyclo[3.2.1]octan-8-yl)nicotinonitrile] has an IC50 [1] of 10 to 100 nM.
`N#Cc1ccc(N2C3CCC2CN(C(=O)CCOCC2(c4ccccc4)CC2)C3)nc1` [Example 307, 6-(3-(3-((1-phenylcyclopropyl)methoxy)propanoyl)-3,8-diazabicyclo[3.2.1]octan-8-yl)nicotinonitrile] was tested, and the IC50 [1] was 100 to 1000 nM.
In the case of `N#Cc1ccc(N2C3CCC2CN(C(=O)CCOC2(c4ccc(F)cc4)CCC2)C3)nc1` [Example 310, 6-(3-(3-(1-(4-fluorophenyl)cyclobutoxy)propanoyl)-3,8-diazabicyclo[3.2.1]octan-8-yl)nicotinonitrile], the IC50 [1] is reported as < 10 nM.
`N#Cc1ccc(N2C3CCC2CN(C(=O)COC2(c4cncc(O)c4)CCC2)C3)nc1` [Example 313, 6-(3-(2-(1-(5-hydroxypyridin-3-yl)cyclobutoxy)acetyl)-3,8-diazabicyclo[3.2.1]octan-8-yl)nicotinonitrile] was tested, and the IC50 [1] was < 10 nM.
With `N#Cc1ccc(N2C3CCC2CN(C(=O)COC2(c4cncc(OCC(F)(F)F)c4)CCC2)C3)nc1` [Example 314, 6-(3-(2-(1-(5-(2,2,2-trifluoroethoxy)pyridin-3-yl)cyclobutoxy)acetyl)-3,8-diazabicyclo[3.2.1]octan-8-yl)nicotinonitrile] the IC50 [1] was 10 to 100 nM.
For `N#Cc1ccc(N2C3CCC2CN(C(=O)COC2(c4c(F)cncc4F)CCC2)C3)nc1` [Example 316, 6-(3-(2-(1-(3,5-difluoropyridin-4-yl)cyclobutoxy)acetyl)-3,8-diazabicyclo[3.2.1]octan-8-yl)nicotinonitrile], the IC50 [1] was < 10 nM.
